Consider three compounds from ChEMBL document CHEMBL1255450, “Detection of E119V and E119I mutations in influenza A (H3N2) viruses isolated from an immunocompromised patient: challenges in diagnosis of oseltamivir resistance” (Antimicrob Agents Chemother, 2010).

Assay [1] concerns Influenza A virus. The experiment in a line: Antiviral activity against Influenza A virus (A/Washington/01/2007 (H3N2)) measured in MDCK cells by fluorescent NA inhibition assay. Type of assay: functional, organism-based.
Assay [2] relates to Influenza A virus. The experiment in a line: Antiviral activity against Influenza A virus (A/Washington/01/2007 (H3N2)) measured in MDCK cells by NA inhibition assay. Format: functional, organism-based.

One may read the IC50 as the concentration that gives 50% inhibition. High values mean weaker potency, low ones greater potency.

As for `C/C=C\[C@@H]1C[C@H](C(=O)O)N[C@H]1[C@@H](NC(C)=O)[C@](C)(CCC)OC`, the IC50 in the assay on Influenza A virus [1] came to 1.22 nM; with Influenza A virus [2], 0.74 nM.
The matching figures for `CCOC(=O)C1=C[C@@H](OC(CC)CC)[C@H](NC(C)=O)[C@@H](N)C1` [OSELTAMIVIR]: 0.44 nM and 0.16 nM.
`CCC(CC)[C@H](NC(C)=O)[C@@H]1[C@H](O)[C@@H](C(=O)O)C[C@H]1NC(=N)N` [PERAMIVIR ANHYDROUS]: the IC50 with Influenza A virus [1] worked out at 0.5 nM; in the assay on Influenza A virus [2], 0.28 nM.
